Test results as given in patent US12599645B2, “Antibodies which bind to lysophosphatidic acid receptor 1 (LPAR1)” (DJS ANTIBODIES LTD, priority 2021, dated 2026).
Blank lines part the entries; values can stand above or below the molecule they belong to.

What was measured:
[1] = target: LPAR1 (Homo sapiens, UniProt Q92633); assay: BRET assay (G protein activation and βArrestin 2 biosensors); type: cell-based; set-up: expressed in transfected cells; host or cells: HEK293 (transient, PEI)
Experimental: Using polyethylenimine (PEI) transfection agent at a 3:1 ratio, HEK293 cells were co-transfected in suspension with hLPAR1 and one of the following biosensors: G protein activation sensors (Gαi2, Gα13, and Gαq) and the βArrestin 2-PM recruitment biosensor (+GRK2). Cells were directly seeded in 96-well plates immediately following transfection at a density of 35,000 cells/well. 48 hours post-transfection, BRET experiments were performed in both agonist and allosteric/antagonist mode. Using a plate washer, culture medium was aspirated and replaced with 30 μl of Hank's Balanced Salt Solution buffer (HBSS). Plates were equilibrated at room temperature for 60 minutes. For agonist testing, serial dilutions of the antibodies were performed in PBS and then added to each well. Antibodies were assayed at 12 concentrations in technical duplicates. Small molecules were added to each relevant well. Small molecules were assayed at 22 concentrations with each biosensor. Cells were then incubated with the antibodies or small molecules at room temperature for 60 or 10 minutes, respectively. 10 μl of 10 μM e-Coelenterazine Prolume Purple (Nanolight) was then added to each well. Cells were incubated at room temperature for an additional 10 minutes. BRET readings were then collected with a 0.4 sec integration time on a plate reader (filters: 400 nm/70 nm, 515 nm/20 nm). For allosteric testing (after agonist testing), an EC75 of the endogenous ligand (oleoyl-LPA) was added to each well already containing antibody or small molecule. Cells were incubated at room temperature for an additional 10 minutes. BRET readings were then collected with a 0.4 sec integration time on a plate reader (filters: 400 nm/70 nm, 515 nm/20 nm). BRET signals were determined by calculating the ratio of light emitted by GFP-acceptor (515 nm) over light emitted by luciferase-donor (400 nm). All BRET ratios were standardized with pre-established BRET values for positive and negative controls. The standardized BRET ratio is referred to as universal BRET (uBRET). Resulting dose-response curves were fitted using the three- or four-parameter logistic non-linear regression model in GraphPad Prism 9.
The inhibition characteristics of Antibody 12 were investigated by Bioluminescence Resonance Energy Transfer (BRET, method 1.15) and compared to a small molecule LPAR1 inhibitor of the prior art (BMS-986020), see FIG. 13. The upper lines are values recorded with LPA present and the lower lines are values recorded with LPA not present. […] This can only happen if the ligand (LPA) is also interacting with the receptor at the same time to enable some signalling. […]

[2] = test system: hepatic bile acid efflux transporters (e.g., BSEP, MRP3 and MRP4); conditions: cited from earlier work
[3] = test system: idiopathic pulmonary fibrosis; conditions: cited from earlier work
[4] = test system: renal fibrosis after UUO surgery; assay: Unilateral ureteral obstruction (UUO) efficacy model of renal fibrosis; type: in vivo, Hartley guinea pigs
Experimental: Unilateral ureteral obstruction (UUO) is a well-characterized disease model for renal fibrosis. The UUO model encompasses key pathophysiological features of chronic kidney disease; tubular necrosis and inflammatory cell infiltration within a relatively short period.
Two unilateral ureteral obstruction (UUO) model efficacy studies were carried out in six-week old female Hartley guinea pigs. On Day 0, UUO surgery was performed. BMS-986020 was administered orally at a dose level of 30 mg/kg in a volume of 5 mL/kg twice daily at from Day −1 to 9. Isotype control and anti-LPAR1 antibody was intraperitoneally administered at a dose level of 6 mg/kg (low) or 20 mg/kg (high) in a volume of 10 mL/kg at Day −1, Day 0, Day 3 and Day 6. The viability, clinical signs, behaviour and individual body weight was monitored daily.
The animals were sacrificed at Day 10. The ligated left kidney and right kidney weight were measured at sacrifice.
Hydroxyproline is an amino acid, making up around 14% of collagen and acts as an important indicator of the severity of fibrosis. To quantify kidney hydroxyproline content, frozen posterior right section of left kidney samples were processed by an alkaline-acid hydrolysis method. AC buffer (2.2M acetic acid/0.48M citric acid) was added to the samples, followed by centrifugation to collect the supernatant. A standard curve of hydroxyproline was constructed with serial dilutions of trans-4-hydroxy-L-proline (Sigma-Aldrich, USA) starting at 16 μg/mL. The prepared samples and standards were mixed with chloramine T solution (Nacalai Tesque Inc., Japan) and incubated for 25 minutes at room temperature. The samples were then mixed with Ehrlich's solution and heated at 65° C. for 20 minutes to develop the colour. After samples were cooled on ice and centrifuged to remove precipitates, the optical density of each supernatant was measured at 560 nm. The concentrations of hydroxyproline were calculated from the hydroxyproline standard curve. Protein concentrations of kidney samples were determined using a BCA protein assay kit (Thermo Fisher Scientific, USA) and used to normalize the calculated hydroxyproline values. Kidney hydroxyproline contents were expressed as μg per mg protein.
The left kidney was fixed in Bouin's solution and embedded in paraffin. For PAS staining, sections were cut from paraffin blocks and stained with Schiff's reagent (FUJIFILM Wako pure chemical corporation, Japan) according to the manufacturer's instructions. To visualize collagen deposition, kidney sections were stained using picro-Sirius red solution (FUJIFILM Wako pure chemical corporation). For quantification of interstitial and medulla fibrosis area, bright field images in the corticomedullary region were captured using a digital camera (DFC295) at 200-fold magnification, and the positive areas in 5 fields/section were measured using ImageJ software (National Institute of Health, USA).

[5] = test system: diabetic nephropathy; conditions: db/db (moderate model), 8 weeks, Li et al. (2017); cited from earlier work
[6] = target: T1, human LPAR1 (Homo sapiens, UniProt Q92633, Q286A); assay: In vitro epitope analysis: transient-transfection CIFAT on human LPAR1 with residue substitutions to alanine; type: binding; conditions: human LPAR1 position 286 (Q, ECD3) substituted to alanine
T1 construct: HA; expressed in transfected cells; host or cells: CHO-K1 (transient)
T1 sequence (Q92633 whole entry Q286A): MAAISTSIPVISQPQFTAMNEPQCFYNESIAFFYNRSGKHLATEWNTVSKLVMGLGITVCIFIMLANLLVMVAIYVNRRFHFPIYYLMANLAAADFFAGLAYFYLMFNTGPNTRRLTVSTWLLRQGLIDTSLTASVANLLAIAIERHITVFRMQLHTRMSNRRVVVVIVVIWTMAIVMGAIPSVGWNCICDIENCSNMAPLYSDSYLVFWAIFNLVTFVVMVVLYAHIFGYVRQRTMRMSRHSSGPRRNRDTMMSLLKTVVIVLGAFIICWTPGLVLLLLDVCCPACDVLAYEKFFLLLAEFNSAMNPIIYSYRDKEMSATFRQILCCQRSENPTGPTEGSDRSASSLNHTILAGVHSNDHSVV
Experimental: (§1) CHO-K1 cells were seeded in clear 96-well plates at 20,000 cells per 200 μL full growth medium and incubated for 24 hours at 37° C. The following day, in a sterile tube, 0.0309 uL/well PEI (Generon, MW 160,000) was diluted into 10 uL/well transfection medium (DMEM supplemented with 2 mM L-glutamine and Penicillin-Streptomycin). The diluted PEI was added to 100 ng/well DNA encoding the target protein (human LPAR1 (SEQ ID NO: 62) unless otherwise stated), before vortexing immediately and incubating the mixture for 10 minutes at room temperature. 200 μL/well full growth medium was added to the PEI-DNA mixture, then medium in wells was taken off and 200 ul full growth medium/PEI/DNA mixture was added in the wells of the adherent cell plate. […] After washing and cell fixation with 4% PFA, the binding of the antibodies was detected using a goat anti-human Alexa Fluor 488 detection antibody (Invitrogen), incubated for 1 hour at room temperature. Fluorescence at 488 nm was measured using a BMG LABTECH ClarioStar plate reader and microscopy images were taken at 10× magnification.
(§2) Based on the epitope analysis presented in FIGS. 3 and 4, constructs were designed to test the important residues/interaction regions predicted in silico. […] CHO-K1 cells were transiently transfected with these plasm ids and the binding of an anti-LPAR1 mAb assessed to each of these receptor variants using protocol 1.11. […]

[7] = target: T2, human LPAR1 (Homo sapiens, UniProt Q92633, N35A); assay: as above; type: binding; conditions: human LPAR1 position 35 (N, N-terminus) substituted to alanine; binding of mAb with VH SEQ ID NO: 369, VL SEQ ID NO: 39
T2 construct: HA; expressed in transfected cells; host or cells: CHO-K1 (transient)
T2 sequence (Q92633 whole entry N35A): as the sequence (Q92633 whole entry Q286A) above, with N35A, A286Q counted along it
Experimental: as §1, §2

[8] = Study 1, BMS-986020 30 mg/kg oral twice daily, antibody 20 mg/kg i.p., Day 10

Chain of LPAR1 (Q92633 whole entry): as the sequence (Q92633 whole entry Q286A) above, with A286Q counted along it

- mode of inhibition ([1]; G13 biosensor): competitive inhibitor
- inhibition ([1]; interaction of G-protein G13 with the GPCR, in the presence of LPA): 100%
Molecule: Cc1noc(-c2ccc(-c3ccc(C4(C(=O)O)CC4)cc3)cc2)c1NC(=O)O[C@H](C)c1ccccc1 [BMS-986020]
- binding to hepatic bile acid efflux transporters [2]: off-target binding
- hepatobiliary toxicity ([3]; compound-specific, not mediated via antagonism of LPAR1): off-target hepatobiliary toxicity
- efficacy in patients with idiopathic pulmonary fibrosis ([3]; human, in vivo): showed efficacy
- cortical fibrosis (histological picrosirius staining) [4, 8]: reduced cortical fibrosis
- kidney hydroxyproline [4, 8]: No observable difference
- histological picrosirius staining ([4]; Study 2): No observable difference
- kidney hydroxyproline ([4]; Study 2, BMS-986020 30 mg/kg oral vs vehicle, antibody 20 mg/kg (high) i.p. vs isotype antibody): trend towards reduced hydroxyproline

Molecule: Cc1noc(-c2ccc(CSCCC(=O)O)cc2)c1NC(=O)OC(C)c1ccccc1Cl (stereo not drawn) [Ki16425]
- 24 h albuminuria vs untreated controls, reduction [5]: ~30%

- Epitope residue [6]: Inconclusive
- Epitope residue [7]: Inconclusive
B1: anti-LPAR1 mAb: mAb of the in vitro epitope analysis; VH of SEQ ID NO: 369 and VL of SEQ ID NO: 39 (antibody, V domains shown)
VH: QVQLVQSGSELKKPGASVKVSCKASGYTFTSSGISWVRQAPGQGLEWMGEILPRSGYTNYNQGFTGRFVFSADKSVSTAYLQISSLKAEDTAVYYCARDFASARYAMDYWGQGTTVTVSS
VL: SIQMTQSPSSLSASVGDRVTITCQASQSVRYNVAWYQQKPGKAPKLLIYYASNRYTGVPSRFSGSGSGTDFTFTISSLQPEDIATYFCQHHYSSPLTFGGGTKLEIK
modifications: REGION 1..120: note = >huVH4_Q61A97A99G104
